# What was measured:
# [1] = tested on: Mastomys natalensis; assay: Filaricidal activity against Brugia malayi in Mastomys at a dosage of 50 mg/kg x 5 administered intraperitoneally; assay type: functional; conditions: route intraperitoneal
# [2] = tested on: Mastomys natalensis; assay: Filaricidal activity against Dipetalonema viteae in Mastomys at a dosage of 175 mg/kg x 5 administered subcutaneous; assay type: functional
# [3] = tested on: Mastomys natalensis; assay: Filaricidal activity against Brugia malayi in Mastomys at a dosage of 50 mg/kg x 5 administered intraperitoneally at a day of 21; assay type: functional; conditions: route intraperitoneal
# [4] = tested on: Mastomys natalensis; assay: Filaricidal activity against Brugia malayi in Mastomys at a dosage of 50 mg/kg x 5 administered intraperitoneally at a day of 42; assay type: functional; conditions: route intraperitoneal
# [5] = tested on: Mastomys natalensis; assay: Filaricidal activity against Brugia malayi in Mastomys at a dosage of 50 mg/kg x 5 administered intraperitoneally at a day of 63; assay type: functional; conditions: route intraperitoneal
# [6] = tested on: Mastomys natalensis; assay: Filaricidal activity against Brugia malayi in Mastomys at a dosage of 50 mg/kg x 5 administered intraperitoneally at a day of 8; assay type: functional; conditions: route intraperitoneal
# [7] = tested on: Mastomys natalensis; assay: Filaricidal activity against Brugia malayi in Mastomys at a dosage of 50 mg/kg x 5 administered intraperitoneally at a day of 91; assay type: functional; conditions: route intraperitoneal
# [8] = tested on: Mastomys natalensis; assay: Filaricidal activity against Dipetalonema viteae in Mastomys at a dosage of 175 mg/kg x 5 administered subcutaneous at a day of 21; assay type: functional
# [9] = tested on: Mastomys natalensis; assay: Filaricidal activity against Dipetalonema viteae in Mastomys at a dosage of 175 mg/kg x 5 administered subcutaneous at a day of 42; assay type: functional
# [10] = tested on: Mastomys natalensis; assay: Filaricidal activity against Dipetalonema viteae in Mastomys at a dosage of 175 mg/kg x 5 administered subcutaneous at a day of 8; assay type: functional
# [11] = tested on: Rattus norvegicus; assay: Filaricidal activity against Litomosoides carinii in cotton rats at a dosage of 6 mg/kg x 5 administered intraperitoneally; assay type: functional; conditions: route intraperitoneal
# [12] = Filaricidal activity against Litomosoides carinii in cotton rats at a dosage of 6 mg/kg x 5 administered intraperitoneally at a day of 8; conditions: route intraperitoneal
# [13] = tested on: Cricetinae gen. sp.; assay: Anthelmintic activity against Ancylostoma ceylanicum (hook worm) in hamsters at a dose of 1x 1 mg/kg administered perorally; assay type: functional, Cricetulus griseus; conditions: route oral
# [14] = tested on: Cricetinae gen. sp.; assay: Anthelmintic activity against Ancylostoma ceylanicum in hamsters at a dose 1x 1 mg/kg administered perorally; assay type: functional, Cricetulus griseus; conditions: route oral
# [15] = tested on: Cricetinae gen. sp.; assay: Anthelmintic activity against Ancylostoma ceylanicum in hamsters at a dose of 0.5x1 mg/kg administered perorally; assay type: functional, Cricetulus griseus
# [16] = tested on: Mastomys natalensis; assay: Filaricidal activity against Brugia malayi in Mastomys at a dosage of 200 mg/kg x 5 administered orally; assay type: functional; conditions: route oral
# [17] = tested on: Mastomys natalensis; assay: Filaricidal activity against Dipetalonema viteae in Mastomys at a dosage of 300 mg/kg x 5 administered orally; assay type: functional; conditions: route oral
# [18] = tested on: Mastomys natalensis; assay: Filaricidal activity against Dipetalonema viteae in Mastomys at a dosage of 6.25 mg/kg x 5 administered subcutaneous; assay type: functional
# [19] = tested on: Mastomys natalensis; assay: Filaricidal activity against Brugia malayi in Mastomys at a dosage of 200 mg/kg x 5 administered orally at a day of 42; assay type: functional; conditions: route oral
# [20] = tested on: Mastomys natalensis; assay: Filaricidal activity against Brugia malayi in Mastomys at a dosage of 200 mg/kg x 5 administered orally at a day of 63; assay type: functional; conditions: route oral
# [21] = tested on: Mastomys natalensis; assay: Filaricidal activity against Brugia malayi in Mastomys at a dosage of 200 mg/kg x 5 administered orally at a day of 8; assay type: functional; conditions: route oral
# [22] = tested on: Mastomys natalensis; assay: Filaricidal activity against Brugia malayi in Mastomys at a dosage of 200 mg/kg x 5 administered orally at a day of 91; assay type: functional; conditions: route oral
# [23] = tested on: Mastomys natalensis; assay: Filaricidal activity against Dipetalonema viteae in Mastomys at a dosage of 6.25 mg/kg x 5 administered subcutaneous at a day of 42; assay type: functional
# [24] = tested on: Mastomys natalensis; assay: Filaricidal activity against Dipetalonema viteae in Mastomys at a dosage of 300 mg/kg x 5 administered orally at a day of 21; assay type: functional; conditions: route oral
# [25] = tested on: Mastomys natalensis; assay: Filaricidal activity against Dipetalonema viteae in Mastomys at a dosage of 300 mg/kg x 5 administered orally at a day of 42; assay type: functional; conditions: route oral
# [26] = tested on: Mastomys natalensis; assay: Filaricidal activity against Dipetalonema viteae in Mastomys at a dosage of 6.25 mg/kg x 5 administered subcutaneous at a day of 21; assay type: functional
# [27] = tested on: Mastomys natalensis; assay: Filaricidal activity against Dipetalonema viteae in Mastomys at a dosage of 6.25 mg/kg x 5 administered subcutaneous at a day of 8; assay type: functional
# [28] = tested on: Mus musculus; assay: Anthelmintic activity against Syphacia obvelata in mice at a dose of 100x1 mg/kg administered perorally; assay type: functional
# [29] = tested on: Mus musculus; assay: Anthelmintic activity against Syphacia obvelata in mice at a dose of 50x1 mg/kg administered perorally; assay type: functional
# [30] = tested on: Rattus norvegicus; assay: Anthelmintic activity against Hymenolepis nana in rats at a dose of 400x3 mg/kg administered perorally; assay type: functional
# [31] = tested on: Rattus norvegicus; assay: Filaricidal activity against Litomosoides carinii in cotton rats at a dosage of 10 mg/kg x 5 administered intraperitoneally at a day of 42; assay type: functional; conditions: route intraperitoneal
# [32] = tested on: Rattus norvegicus; assay: Filaricidal activity against Litomosoides carinii in cotton rats at a dosage of 300 mg/kg x 5 administered orally at a day of 8; assay type: functional; conditions: route oral
# [33] = tested on: Rattus norvegicus; assay: Filaricidal activity against Litomosoides carinii in cotton rats at a dosage of 300 mg/kg x 5 administered orally at a day of 21; assay type: functional; conditions: route oral
# [34] = tested on: Rattus norvegicus; assay: Filaricidal activity against Litomosoides carinii in cotton rats at a dosage of 300 mg/kg x 5 administered orally at a day of 42; assay type: functional; conditions: route oral
# [35] = tested on: Mastomys natalensis; assay: Filaricidal activity against Brugia malayi in Mastomys at a dosage of 200 mg/kg x 5 administered orally at a day of 21; assay type: functional; conditions: route oral
# [36] = tested on: Mastomys natalensis; assay: Filaricidal activity against Dipetalonema viteae in Mastomys at a dosage of 300 mg/kg x 5 administered orally at a day of 8; assay type: functional; conditions: route oral
# [37] = tested on: Litomosoides carinii; assay: Filaricidal activity against Litomosoides carinii in cotton rats at a dosage of 300 mg/kg x 5 administered orally; conditions: route oral
# [38] = tested on: Sigmodon hispidus; assay: Filaricidal activity against Litomosoides carinii in cotton rats at a dosage of 10 mg/kg x 5 administered intraperitoneally at a day of 8; conditions: route intraperitoneal
# [39] = tested on: Sigmodon hispidus; assay: Filaricidal activity against Litomosoides carinii in cotton rats at a dosage of 10 mg/kg x 5 administered intraperitoneally at a day of 21; conditions: route intraperitoneal
# [40] = tested on: Sigmodon hispidus; assay: Filaricidal activity against Litomosoides carinii in cotton rats at a dosage of 10 mg/kg x 5 administered intraperitoneally at a day of 42; conditions: route intraperitoneal
structure (smiles),measurement,setting,value
CCN(CC)C(=O)N1CCN(C)CC1 [DIETHYLCARBAMAZINE],Death,[1],57.8%
same,Death,[2],0%
same,Removal of microfilariae,[3],88.6%
same,Removal of microfilariae,[4],90.7%
same,Removal of microfilariae,[5],71.6%
same,Removal of microfilariae,[6],95.9%
same,Removal of microfilariae,[7],91.6%
same,Removal of microfilariae,[8],94.1%
same,Removal of microfilariae,[9],51.6%
same,Removal of microfilariae,[10],99.6%
same,Death,[11],0%
same,Removal of microfilariae,[12],97.1%
COC(=O)Nc1nc2cc(C(=O)c3ccccc3)ccc2[nH]1 [MEBENDAZOLE],Worm reduction,[13],100%
same,Animals cured,[14],100%
same,Animals cured,[15],37.5%
same,Worm reduction,[15],72%
same,Death,[16],0%
same,Death,[1],100%
same,Death,[17],85.4%
same,Death,[18],100%
same,Removal of microfilariae,[19],0%
same,Removal of microfilariae,[20],0%
same,Removal of microfilariae,[21],0%
same,Removal of microfilariae,[22],0%
same,Removal of microfilariae,[3],65.3%
same,Removal of microfilariae,[4],100%
same,Removal of microfilariae,[5],100%
same,Removal of microfilariae,[6],0%
same,Removal of microfilariae,[7],100%
same,Removal of microfilariae,[23],100%
same,Removal of microfilariae,[24],85.5%
same,Removal of microfilariae,[25],100%
same,Removal of microfilariae,[26],100%
same,Removal of microfilariae,[27],53.1%
same,Animals cured,[28],66.6%
same,Animals cured,[29],0%
same,Animals cured,[30],0%
same,Death,[31],100%
same,Removal of microfilariae,[32],48.8%
same,Removal of microfilariae,[33],57.7%
same,Removal of microfilariae,[34],74.3%
same,Removal of microfilariae,[35],0%
same,Removal of microfilariae,[36],0%
same,Death,[37],33.8%
same,Removal of microfilariae,[38],58.6%
same,Removal of microfilariae,[39],96.3%
same,Removal of microfilariae,[40],100%
